Laboratory results from patent US20250230171A1 (MOMA Therapeutics, Inc., priority 2023, published 2025).
Like-named read-outs stand apart in the source and are kept apart here.

Key:
[1] = target: biotinylated Avi-POLθ[2-894] (Homo sapiens (Human), UniProt O75417); assay: POLθ ATPase assay (ADP-Glo); conditions: n=2, read-out: Biochemical ATPase ADPGlo IC50
DLD1 BRCA2 (−/−) cells = assay: 7-day cell viability assay (CellTiter-Glo), DLD1 BRCA2 (−/−); assay type: cell-based, human; conditions: n=2, read-out: Viability IC50 (uM) DLD1 BRCA2 null
Method in brief: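 7-day growth assay in DLD1 cells with or without BRCA2; seeding densities chosen to keep log-linear growth. Compound: 10 uM top, 3-fold, 9 points. Endpoint: CTG ATP luminescence at RT.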

DLD1 WT cells = assay: 7-day cell viability assay (CellTiter-Glo), DLD1 parental (WT); assay type: cell-based, human; conditions: n=2
[2] = Homo sapiens, DLD-1, 168 h, 7-day viability
[3] = Homo sapiens, DLD-1, 168 h, 7-day CellTiter-Glo

Sequence of biotinylated Avi-POLθ[2-894] (O75417 2-894): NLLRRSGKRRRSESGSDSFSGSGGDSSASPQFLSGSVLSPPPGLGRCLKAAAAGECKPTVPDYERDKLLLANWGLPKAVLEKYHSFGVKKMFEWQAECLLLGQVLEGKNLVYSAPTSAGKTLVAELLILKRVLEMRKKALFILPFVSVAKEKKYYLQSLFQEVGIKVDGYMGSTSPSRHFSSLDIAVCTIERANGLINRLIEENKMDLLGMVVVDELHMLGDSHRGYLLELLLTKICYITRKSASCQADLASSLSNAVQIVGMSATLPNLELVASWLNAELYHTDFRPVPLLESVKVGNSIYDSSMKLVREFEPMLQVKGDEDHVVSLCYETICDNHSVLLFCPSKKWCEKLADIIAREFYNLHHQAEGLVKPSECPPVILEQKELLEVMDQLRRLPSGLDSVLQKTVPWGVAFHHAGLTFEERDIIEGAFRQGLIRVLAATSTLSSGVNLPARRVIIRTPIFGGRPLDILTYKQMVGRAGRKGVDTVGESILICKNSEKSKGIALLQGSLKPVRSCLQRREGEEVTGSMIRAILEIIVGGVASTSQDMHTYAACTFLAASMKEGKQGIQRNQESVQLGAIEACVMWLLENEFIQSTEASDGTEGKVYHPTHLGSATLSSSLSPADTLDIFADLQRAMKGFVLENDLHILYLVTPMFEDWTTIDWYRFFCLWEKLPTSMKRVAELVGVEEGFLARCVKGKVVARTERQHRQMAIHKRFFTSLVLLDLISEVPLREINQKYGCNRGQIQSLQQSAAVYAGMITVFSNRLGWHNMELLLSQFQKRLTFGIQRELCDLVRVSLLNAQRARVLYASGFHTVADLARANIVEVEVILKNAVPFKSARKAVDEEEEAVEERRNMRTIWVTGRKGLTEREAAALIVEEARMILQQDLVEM

Compound | IC50 [1] [nM] | IC50 (DLD1 BRCA2 (−/−) cells; [2]) [µM] | IC50 (DLD1 WT cells; [2]) [µM] | further results
COc1cnc(Cl)cc1-c1cc(C)ncc1C(=O)Nc1nc2c(s1)CN(C(=O)c1c(Cl)cnn1C(C)C)C2 | 1 to 15 | 0.001 to 0.1 | ≥ 10 | 
COc1cnc(Cl)cc1-c1cc(C)ncc1C(=O)Nc1nc2c(s1)CN(C(=O)c1cnn(C)c1Cl)C2 | 1 to 15 | 0.001 to 0.1 | ≥ 10 | 
2′-chloro-N-(5-(6- (difluoromethoxy)nicotinoyl)-5,6- dihydro-4H-pyrrolo[3,4-d]thiazol-2-yl)- 5′-methoxy-6-methyl-[4,4′-bipyridine]- 3-carboxamide [Example 32] | 1 to 15 |  |  | IC50 (DLD1 BRCA2 (−/−) cells; 7-day viability): 0.001 to 0.1 µM; IC50 (DLD1 WT cells; 7-day viability): 2 to 5 µM
4-(5-Cyano-2-methoxyphenyl)-N-(5-(4-(difluoromethyl)-2-methoxybenzoyl)-5,6-dihydro-4H-pyrrolo[3,4-d]thiazol-2-yl)-6-methylnicotinamide [Example 481] |  |  |  | IC50 ([1]; POLθ ATPase, ADP-Glo): 1 to 15 nM; IC50 (DLD1 BRCA2 (−/−) cells; 7-day CellTiter-Glo): 0.001 to 0.1 µM; IC50 (DLD1 WT cells; 7-day CellTiter-Glo): ≥ 10 µM
COc1cnc(Cl)cc1-c1cc(C)ncc1C(=O)Nc1nc2c(s1)CN(C(=O)C1CC(C(F)F)C1)C2 (mixture of isomers) [Example 201] | 1 to 15 | 0.1 to 0.25 | ≥ 10 | 
COc1cnc(Cl)cc1-c1cc(C)ncc1C(=O)Nc1nc2c(s1)CN(C(=O)c1c(C(F)F)cnn1C)C2 (racemic) | 1 to 15 | 0.001 to 0.1 | ≥ 10 | 
COc1cnc(Cl)cc1-c1cc(C)ncc1C(=O)Nc1nc2c(s1)CN(C(=O)c1cnn(C(F)F)c1)C2 (racemic) | 1 to 15 | 0.001 to 0.1 | 0.001 to 0.5 | 
COc1ccccc1-c1cc(C)ncc1C(=O)Nc1nc2c(s1)CN(C(=O)C1CC(OC(F)F)C1)C2 (racemic) | 1 to 15 | 0.25 to 0.5 | ≥ 10 | 
COc1ccc(C#N)cc1-c1cc(C)ncc1C(=O)Nc1nc2c(s1)CN(C(=O)c1cccnc1OC)C2 (racemic) [Example 127] | 1 to 15 | 0.001 to 0.1 | ≥ 10 | 
COc1cnc(Cl)cc1-c1cc(C)ncc1C(=O)Nc1nc2c(s1)CN(C(=O)C1CCCC(OC)C1)C2 (racemic) [Example 128, (Racemic) 2′-chloro-5′-methoxy-N-(5-(3-methoxycyclohexane-1-carbonyl)-5,6-dihydro-4H-pyrrolo[3,4-d]thiazol-2-yl)-6-methyl-[4,4′-bipyridine]-3-carboxamide] | 1 to 15 | 0.001 to 0.1 | ≥ 10 | 
COc1cnc(Cl)cc1-c1cc(C)ncc1C(=O)Nc1nc2c(s1)CN(C(=O)c1nn(C)cc1Cl)C2 (racemic) [Example 152, (Racemic)-4-(5-Cyano-2-methoxyphenyl)-6-methyl-N-(6-(phenylamino)-4,5,6,7-tetrahydrobenzo[d]thizaol-2-yl)nicotinamide] | 1 to 15 | 0.1 to 0.25 | ≥ 10 | 
COc1ccc(C#N)cc1-c1cc(C)ncc1C(=O)Nc1nc2c(s1)CN(C(=O)C1CC(OC(C)C)C1)C2 (racemic) [Example 166] | 1 to 15 | 0.25 to 0.5 | ≥ 10 | 
COc1cnc(Cl)cc1-c1cc(C)ncc1C(=O)Nc1nc2c(s1)CN(C(=O)C1CCC(OC(F)(F)F)C1)C2 (racemic) [Example 397, (Racemic) 2′-chloro-5′-methoxy-6-methyl-N-(5-(3-(trifluoromethoxy)cyclopentane-1-carbonyl)-5,6-dihydro-4H-pyrrolo[3,4-d]thiazol-2-yl)-[4,4′-bipyridine]-3-carboxamide] |  |  |  | IC50 ([1]; POLθ ATPase, ADP-Glo): 1 to 15 nM; IC50 (DLD1 BRCA2 (−/−) cells; [3]): 0.001 to 0.1 µM; IC50 (DLD1 WT cells; [3]): ≥ 10 µM
COc1cnc(Cl)cc1-c1cc(C)ncc1C(=O)Nc1nc2c(s1)CN(C(=O)c1ccc(C(F)(F)F)nc1OC)[C@H]2C (single isomer, unassigned) [Example 1041, (S or R)-2′-chloro-5′-methoxy-N-(5-(2-methoxy-6-(trifluoromethyl)nicotinoyl)-4-methyl-5,6-dihydro-4H-pyrrolo[3,4-d]thiazol-2-yl)-6-methyl-[4,4′-bipyridine]-3-carboxamide] |  |  |  | IC50 ([1]; POLθ ATPase, ADP-Glo): 1 to 15 nM; IC50 (DLD1 BRCA2 (−/−) cells; [3]): 0.001 to 0.1 µM; IC50 (DLD1 WT cells; [3]): ≥ 10 µM
COc1cnc(Cl)cc1-c1cc(C)ncc1C(=O)Nc1nc2c(s1)C(C)N(C(=O)c1ccc(C(F)(F)F)nc1OC)C2 (single isomer, unassigned) [Example 1046, (R or S)-2′-chloro-5′-methoxy-N-(5-(2-methoxy-6-(trifluoromethyl)nicotinoyl)-6-methyl-5,6-dihydro-4H-pyrrolo[3,4-d]thiazol-2-yl)-6-methyl-[4,4′-bipyridine]-3-carboxamide] |  |  |  | IC50 ([1]; POLθ ATPase, ADP-Glo): 1 to 15 nM; IC50 (DLD1 BRCA2 (−/−) cells; [3]): 0.001 to 0.1 µM; IC50 (DLD1 WT cells; [3]): ≥ 10 µM
COc1cnc(Cl)cc1-c1cc(C)ncc1C(=O)Nc1nc2c(s1)CN(C(=O)C1CCC(OC(F)F)CC1)C2 (stereo not drawn) [Example 2, (Cis and Trans) 2′-chloro-N-(5-(4-(difluoromethoxy)cyclohexane-1-carbonyl)-5,6-dihydro-4H-pyrrolo[3,4-d]thiazol-2-yl)-5′-methoxy-6-methyl-[4,4′-bipyridine]-3-carboxamide] | 1 to 15 | 0.001 to 0.1 | ≥ 10 | 
COc1cnc(Cl)cc1-c1cc(C)ncc1C(=O)Nc1nc2c(s1)CN(C(=O)[C@@H]1C[C@H]1C(F)F)C2 [Example 3, 2′-chloro-N-(5-((1R,2R)-2-(difluoromethyl)cyclopropane-1-carbonyl)-5,6-dihydro-4H-pyrrolo[3,4-d]thiazol-2-yl)-5′-methoxy-6-methyl-[4,4′-bipyridine]-3-carboxamide] | 1 to 15 | 0.001 to 0.1 | 2 to 5 | 
COc1cnc(Cl)cc1-c1cc(C)ncc1C(=O)Nc1nc2c(s1)CN(C(=O)c1cnn3c1CCC3)C2 [Example 4, 2′-chloro-N-(5-(5,6-dihydro-4H-pyrrolo[1,2-b]pyrazole-3-carbonyl)-5,6-dihydro-4H-pyrrolo[3,4-d]thiazol-2-yl)-5′-methoxy-6-methyl-[4,4′-bipyridine]-3-carboxamide] | 1 to 15 | 0.001 to 0.1 | 0.001 to 0.5 | 
COc1cnc(Cl)cc1-c1cc(C)ncc1C(=O)Nc1nc2c(s1)CN(C(=O)c1c(C)nn(C)c1Cl)C2 [Example 5, 2′-chloro-N-(5-(5-chloro-1,3-dimethyl-1H-pyrazole-4-carbonyl)-5,6-dihydro-4H-pyrrolo[3,4-d]thiazol-2-yl)-5′-methoxy-6-methyl-[4,4′-bipyridine]-3-carboxamide] | 1 to 15 | 0.001 to 0.1 | ≥ 10 | 

Second part, led by results:

IC50 [1] [nM] | IC50 (DLD1 BRCA2 (−/−) cells; [2]) [µM] | Compound | IC50 (DLD1 WT cells; [2]) [µM] | further results
1 to 15 | 0.001 to 0.1 | COc1cnc(Cl)cc1-c1cc(C)ncc1C(=O)Nc1nc2c(s1)CN(C(=O)C1CCC(OC(F)F)C1)C2 (stereo not drawn) | ≥ 10 | 
1 to 15 | 0.1 to 0.25 | COc1cnc(Cl)cc1-c1cc(C)ncc1C(=O)Nc1nc2c(s1)CN(C(=O)c1cc(C)nn1C(F)F)C2 | ≥ 10 | 
1 to 15 | 0.1 to 0.25 | COc1cn2cncc2cc1-c1cc(C)ncc1C(=O)Nc1nc2c(s1)CN(C(=O)c1c(Cl)cnn1C)C2 | ≥ 10 | 
1 to 15 | 0.5 to 2 | COc1cnc(Cl)cc1-c1cc(C)ncc1C(=O)Nc1nc2c(s1)CN(C(=O)[C@@H]1CCCOC1)C2 | ≥ 10 | 
1 to 15 | 0.25 to 0.5 | COc1cnc(Cl)cc1-c1cc(C)ncc1C(=O)Nc1nc2c(s1)CN(C(=O)c1ccncc1)C2 | ≥ 10 | 
1 to 15 | ≥ 2 | COc1ccc(C#N)cc1-c1cc(C)ncc1C(=O)Nc1nc2c(s1)CN(C(=O)c1ccnc(C)c1)C2 | ≥ 10 | 
1 to 15 | 0.1 to 0.25 | COc1cnc(Cl)cc1-c1cc(C)ncc1C(=O)Nc1nc2c(s1)CN(C(=O)c1ccccn1)C2 | ≥ 10 | 
1 to 15 | 0.5 to 2 | COc1ccc(C#N)cc1-c1cc(C)ncc1C(=O)Nc1nc2c(s1)CN(C(=O)c1cc(C)ccn1)C2 | ≥ 10 | 
1 to 15 | 0.001 to 0.1 | COc1cnc(Cl)cc1-c1cc(C)ncc1C(=O)Nc1nc2c(s1)CN(C(=O)c1ncc(Cl)cc1OC)C2 | ≥ 10 | 
1 to 15 | 0.1 to 0.25 | COc1cnc(Cl)cc1-c1cc(C)ncc1C(=O)Nc1nc2c(s1)CN(C(=O)c1ncc(C(F)F)cc1Cl)C2 | ≥ 10 | 
1 to 15 | 0.001 to 0.1 | COc1cnc(Cl)cc1-c1cc(C)ncc1C(=O)Nc1nc2c(s1)CN(C(=O)c1cccc3ccnn13)C2 | ≥ 10 | 
